These results are taken from patent publication US9368421B2, “Under-fill material and method for producing semiconductor device” (NITTO DENKO CORPORATION, priority 2011, dated 2016).

The nature of this data set: Acid dissociation constant pKa of flux agent. Particulars: for pKa: dilute aqueous solution; for pKa1: first dissociation constant of a dicarboxylic acid.

Description: The pKa can be determined by measuring an acid dissociation constant Ka=[H3O][B^−]/[BH] under the condition of a dilute aqueous solution of the carboxyl group-containing compound and using the equation of pKa=−log Ka. Here, BH represents a carboxyl group-containing compound, and B^− represents a conjugate base of the carboxyl group-containing compound. The pKa can be measured in such a manner that a hydrogen ion concentration is measured using a pH meter, and the pKa is calculated from the concentration of a relevant substance and the hydrogen ion concentration.

Consider `O=C(O)c1c(O)cccc1O` [2,6-dihydroxybenzoic acid], for which the pKa stood at 1.2.

`O=C(O)c1ccccc1-c1ccccc1` [2-phenylbenzoic acid] registered a pKa of 3.5.

Molecule `O=C(O)C1CCCCC1C(=O)O` (stereo not shown) gave a pKa of 4.4 and a pKa1 of 4.4.

In the case of `CN(C)c1ccc(C(=O)O)cc1` [p-dimethylaminobenzoic acid], the pKa was determined as 4.9.

The molecule `O=C(O)c1ccccc1[N+](=O)[O-]` [2-nitrobenzoic acid] had a pKa of 2.5.

For `O=C(O)CCCCCCCCCCC(=O)O` [Dodecanedioic acid, dodecanedioic acid], the pKa turned out to be 5 and the pKa1 came to 5.0.

`O=C(O)CCCCCCC(=O)O` [Octanedioic acid, octanedioic acid] came in with a pKa of 4.5 and a pKa1 of 4.5.
